Results: ChEMBL document CHEMBL4261520, “Advances in indoleamine 2,3-dioxygenase 1 medicinal chemistry” (Medchemcomm, 2017)

Tested on: Homo sapiens
Assay: In vivo inhibition of IDO1 in malignant glioma patient assessed as reduction in intratumoral kynurenine levels relative to control
Type: functional

## O=C1CC(c2c[nH]c3ccc(F)cc23)C(=O)N1 (stereo unspecified) [PF-06840003]
  inhibition (INH): >80%
